In patent US20190216751A1, “Compositions and Methods for the Treatment and Prevention of Cancer” (California State University Northridge, priority 2017, published 2019):

What was measured:
[1] = tested on: human triple negative breast cancer cells; assay: Cell proliferation assay and hypusine western blot, response to GC7; type: cell-based; details: FIGS. 2A and 3A
Method: Cell lines were plated in a 6 well plate at 1e5 cells/mL and left to attach overnight. Cells were then treated if necessary then lysed using Radioimmunoprecipitation assay (RIPA) buffer containing phosphatase and protease inhibitors and left to rotate at 4° C. for at least 3 hours. Lysates were then cleared by centrifugation at 12,000 RPM for 10 minutes at 4° C. Protein concentrations were determined using Bradford Assay. 4-12% Bis-Tris […] gels were used to run protein lysates at 20 μg of protein that were stained with NuPage LDS Sample Buffer. Gels were then transferred onto nitrocellulose membranes and exposed to primary antibody solutions at the following concentrations for each indicated antibody. PEAK1 (Millipore 1:400), E-cadherin (Cell Signaling 1:1,000), Hypusine (Thermo Scientific 1:1,000), eIF5A (Thermo Scientific 1:1,000) and β-actin (Pro-Sci 1:1,000). Secondary antibodies were used at a 1:5,000-1:10,000 dilution. Band intensity graphs were quantified using Fiji software after image thresholding.
The CellTiter 96® AQueous One Solution (Promega) was used to perform cell proliferation experiments. Cells were plated at 5e3 cells/mL at 200 μL/well in a 96-well plate and allowed to attach overnight. […] Absorbance readings were measured at 490 nm wavelength at 1.5, 2 and 3 hours (absorbance is directly proportional to the number of living cells).

[2] = tested on: 67NR cells; assay: Cell proliferation assay (CellTiter 96 AQueous One, MTS); type: cell-based, mouse
Excerpt: (§1) The next research questions revolved around asking how TGFβ is regulating eIF5A and what other proteins might be involved to completely block TGFβ-induced EMT. This led to histone deacetylase enzyme 6 (HDAC6). HDAC6 has been previously reported to be responsible for the deacetylation of eIF5A in the nucleus in order to make it readily available for hypusination and later transport out in the cytoplasm for functioning as a translation factor. To determine if it were possible to further increase the efficacy or potency of GC7, the inventors co-treated with Tubastatin A (an HDAC6 inhibitor) in 4T1 and 67NR cells as well as MDA-MB-468 cells which initially were not very sensitive to GC7. Triple negative human breast cancer cell line, […], was also used to see if another cell line representative of this breast cancer subtype was sensitive towards DHPS and HDAC6 inhibition. (FIGS. 5A and 5B). Here, are shown cell viability graphs for these four cell lines pretreated with GC7 at 1 μM and after 12 hours were exposed to various concentrations of Tubastatin A (TubA) ranging from 0.1 nM to 100 μM. […] MDA-MB-468 and BT549 cells remained to be insensitive to TubA with or without GC7 pretreatment (FIG. 5A). Next, the inventors performed the opposite cell viability experiment in which these four cell lines were pretreated with TubA at 1 μM and then exposed these cells to various concentrations of GC7 ranging from 0.1 nM to 1 mM. […] 4T1 cells were treated with TubA at 10 μM, GC7 at 10 μM or both drugs simultaneously for 48, 72 and 96 hours. […] To test this, the inventors looked further into the changes of eIF5A localization when treating with TubA, GC7 or both drugs simultaneously. In FIG. 5D is shown immunofluorescence staining of 4T1 cells treated with TubA at 10 μM, GC7 at 10 μM or both drugs at those same concentrations for 48 hours. […] DAPI was used to stain the nuclei shown in the […] channel and phase-contrast images are shown as reference (FIG. 5D). […] Protein lysates were also collected at the same time point described in FIG. 5D. Twenty μg of protein for each condition was run on a Bis-Tris […] gel then transferred onto a nitrocellulose membrane before staining total protein using Ponceau S (FIG. 5E).
(§2) The CellTiter 96® AQueous One Solution (Promega) was used to perform cell proliferation experiments. Cells were plated at 5e3 cells/mL at 200 μL/well in a 96-well plate and allowed to attach overnight. Cells were then treated with indicated drugs the next day at various concentrations. After 72 hours of drug treatments, 40 μL of AQueous One solution was added to each well. Absorbance readings were measured at 490 nm wavelength at 1.5, 2 and 3 hours (absorbance is directly proportional to the number of living cells).

[3] = tested on: 4T1 cells; assay: as above; type: cell-based, mouse
Excerpt: as §1, §2

[4] = tested on: eIF5A localization in 67NR cells; assay: Immunofluorescence, subcellular localization of total eIF5A; type: cell-based, mouse; details: 1 and 10 μM GC7, 48 hours
Method: Thus, we interrogated the subcellular localization of eIF5A protein using immunofluorescent staining under control as well as 1 and 10 μM GC7 treatment conditions in triple negative breast cancer lines (FIGS. 12A and 12B).
Cells were plated at 1e4 cells/mL at 4 mL in a 6-well plate containing a sterile glass coverslip and allowed to attach overnight. Cells were then treated with appropriate inhibitors at indicated concentrations and time-points. Cells were first fixed using 4% paraformaldehyde for 20 minutes. Cells were then subjected to Triton-X to permeabilize the cells before treatment with specific antibodies in 2% BSA in PBS. After primary antibody incubation for 90 minutes, cells were washed with PBS three times before incubating with secondary antibodies in 2% BSA in PBS for 1 hour. Cells were again washed with PBS three times before set overnight staining with DAPI. Cells were then imaged using a Leica DMI6000 inverted microscope at 100× magnification.

[5] = tested on: E-cadherin in 67NR cell line; assay: Western blot E-cadherin after GC7; type: cell-based, mouse; details: increased GC7 concentration, 48 hours; only in 67NR
Method: The inventors sought to determine if the decrease in cell viability is due to the inhibition of post translational modification of eIF5A. To test this, all cell lines were treated with GC7 at 100 μM for 48 hours—which were the time point and concentration at which a decrease in cell viability was seen (FIG. 2B). The inventors then collected, performed a western blot and immunoblotted for hypusine, total eIF5A and β-actin as a loading control (FIG. 3A). […] To test if this effect is dose-dependent, 4T1, 67NR and MCF10CA1a cells were treated with various concentrations of GC7 ranging from 0.1 μM to 100 μM. Protein lysates were then collected after 48 hours of treatment and performed a western blot. […] To validate this in breast cancer cells, the inventors immunoblotted for PEAK1 as well as E-cadherin, hypusine, total eIF5A and β-actin as a loading control (FIG. 3B). […] The inventors next looked at cell viability at lower concentrations of GC7, such as 1 μM and 10 μM, where a decrease in hypusinated eIF5A is still achieved but the decrease in cell viability is not as great in lower concentrations that do still target hypusinated eIF5A (FIG. 3C).
Cell lines were plated in a 6 well plate at 1e5 cells/mL and left to attach overnight. […] Protein concentrations were determined using Bradford Assay. […] Band intensity graphs were quantified using Fiji software after image thresholding.

[6] = TubA 1 μM pretreatment, GC7 0.1 nM to 1 mM

## N=C(N)NCCCCCCCN.O=S(=O)(O)O [GC7, N1-Guanyl-1,7-diaminoheptane]
[1]
  sensitivity to GC7 treatment: insensitive
[2]; 72 hours, 0.1 nM→1 mM
  efficacy after GC7 treatment (cell viability): largest efficacy
[2]; [6]
  change of potency of GC7 by TubA pretreatment (cell viability): this effect was not seen in the three other cell lines
[3]; 72 hours, 0.1 nM→1 mM
  efficacy after GC7 treatment (cell viability): largest efficacy
[3]; [6]
  change of potency of GC7 by TubA pretreatment (cell viability): subtly decreased
[4]
  nuclear depletion of eIF5A: Nuclear depletion of eIF5A was observed
[5]
  E-cadherin protein expression: decrease in E-cadherin
